Experimental findings from US9902728B2, “Pyrrolo and pyrazolopyrimidines as ubiquitin-specific protease 7 inhibitors” (Forma Therapeutics, Inc., priority 2014, dated 2018) are described below.

For the first experiment, the target named is T1, USP7 (Homo sapiens, UniProt Q93009).
T1 construct: USP7, construct USP7 (208-1102) 6*His, Viva Biotech; 6xHis (C); purchased Viva Biotech
T1 sequence (Q93009 208-1102): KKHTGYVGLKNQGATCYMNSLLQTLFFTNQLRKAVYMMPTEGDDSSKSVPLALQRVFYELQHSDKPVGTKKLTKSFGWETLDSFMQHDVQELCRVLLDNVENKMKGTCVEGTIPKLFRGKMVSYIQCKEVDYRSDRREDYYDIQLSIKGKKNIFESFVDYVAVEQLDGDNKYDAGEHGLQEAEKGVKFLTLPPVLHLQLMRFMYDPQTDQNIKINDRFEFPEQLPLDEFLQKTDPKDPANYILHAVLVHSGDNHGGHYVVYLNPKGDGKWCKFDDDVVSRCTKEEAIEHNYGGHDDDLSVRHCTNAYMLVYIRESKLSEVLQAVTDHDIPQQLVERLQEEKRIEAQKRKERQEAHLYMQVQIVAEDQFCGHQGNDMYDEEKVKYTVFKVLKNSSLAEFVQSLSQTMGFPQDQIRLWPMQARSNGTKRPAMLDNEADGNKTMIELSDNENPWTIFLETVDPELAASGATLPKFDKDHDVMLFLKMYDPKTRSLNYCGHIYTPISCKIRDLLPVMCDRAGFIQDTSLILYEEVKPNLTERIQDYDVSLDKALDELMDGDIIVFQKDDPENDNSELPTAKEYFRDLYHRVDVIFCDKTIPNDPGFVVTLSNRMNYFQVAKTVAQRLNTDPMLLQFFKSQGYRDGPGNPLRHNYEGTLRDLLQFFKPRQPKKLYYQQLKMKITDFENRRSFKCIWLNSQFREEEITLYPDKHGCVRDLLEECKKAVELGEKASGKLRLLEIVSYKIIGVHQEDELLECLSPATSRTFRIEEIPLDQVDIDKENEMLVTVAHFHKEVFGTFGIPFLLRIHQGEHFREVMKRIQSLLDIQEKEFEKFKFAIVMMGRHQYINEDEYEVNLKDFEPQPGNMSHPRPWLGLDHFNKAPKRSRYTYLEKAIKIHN
Briefly: USP7 Assay A (Ubitquin-Rhodamine 110 Assay). The format is biochemical. Conditions: USP7 activity in USP7 assay A and B (table does not say which assay per compound); read-out: USP7_IC50. The gist of the method: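 Enzyme and compound sat together for 30 min before Ub-Rh110 was added, in buffer of 20 mM Tris-HCl (pH 8.0), 1 mM GSH, 0.03% BGG and 0.01% Triton X-100.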
`O=C(c1ccc(F)cc1)N1CCC(O)(Cn2cnc3c(cnn3-c3ccc(N4CCN5CCCC[C@@H]5C4)cc3)c2=O)CC1` [Compound I-484, (R)-5-((1-(4-fluorobenzoyl)-4-hydroxypiperidin-4-yl)methyl)-1-(4-(octahydro-2H-pyrido[1,2-a]pyrazin-2-yl)phenyl)-1,5-dihydro-4H-pyrazolo[3,4-d]pyrimidin-4-one]: the IC50 is under 200 nM.
With `O=C(OCCCN1CCCC1)N1CCC(O)(Cn2cnc3c(cnn3-c3ccc(F)cc3)c2=O)CC1` [Compound I-486, 3-(Pyrrolidin-1-yl)propyl 4-((1-(4-fluorophenyl)-4-oxo-1,4-dihydro-5H-pyrazolo[3,4-d]pyrimidin-5-yl)methyl)-4-hydroxypiperidine-1-carboxylate], the IC50 was in the range of 1000 to 10000 nM.
Regarding `O=C(c1ccc(N2CCN3CCCC3C2)cc1)N1CCC(O)(Cn2cnc3c(cnn3-c3ccc(F)cc3)c2=O)CC1` (centres unmarked) [Compound I-487], the IC50 is 1000 to 10000 nM.
Regarding `Cc1cnn(-c2ccc(-n3ncc4c(=O)n(CC5(O)CCN(C(=O)c6cnc(C)o6)CC5)cnc43)cc2)c1` [Compound I-488], the IC50 was under 200 nM.
Still for that read-out and setting: the same measure for `CC1(C(=O)N2CCC(O)(Cn3cnc4c(cnn4-c4ccc(-c5cnn(C(F)F)c5)cc4)c3=O)CC2)CC1` [Compound I-489]: 200 to 1000 nM; for `CC1(C(=O)N2CCC(O)(Cn3cnc4c(cnn4-c4ccc(N5CCC6(CC5)CC(F)(F)C6)cc4)c3=O)CC2)CC1` [Compound I-490]: 200 to 1000 nM.

Staying with this experiment, now noted: USP7 assay A and B (table does not say which assay per compound); read-out: USP7_IC50.
As to `O=C(C1CC1)N1CCC(O)(Cn2cnc3c(cnn3-c3cccc(-c4cccc5[nH]ccc45)c3)c2=O)CC1` [Compound I-406], the IC50 was in the range of 1000 to 10000 nM.
Still for that read-out and setting: the same measure for `O=C(NCCO)c1cccc(-c2cccc(-n3ncc4c(=O)n(CC5(O)CCN(C(=O)C6CC6)CC5)cnc43)c2)c1` [Compound I-409]: 1000 to 10000 nM; for `CCN(Cc1ccc(-n2ncc3c(=O)n(CC4(O)CCN(C(=O)C5CC5)CC4)cnc32)cc1)C1CCCCC1` [Compound I-416]: 1000 to 10000 nM.
As for `O=C(c1ccc(N2CCOCC2)nc1)N1CCC(O)(Cn2cnc3c(cnn3-c3ccc(F)cc3)c2=O)CC1` [Compound I-419], the IC50 lay within 1000 to 10000 nM.
Still for that read-out and setting: the same measure for `O=C(c1ccc(C(F)(F)F)nc1)N1CCC(O)(Cn2cnc3c(cnn3-c3ccc(F)cc3)c2=O)CC1` [Compound I-422]: over 10000 nM; for `O=C(N1CCC(O)(Cn2cnc3c(cnn3-c3ccc(F)cc3)c2=O)CC1)C12CC(C(F)(F)F)(C1)C2` [Compound I-423]: 1000 to 10000 nM.
`CNC(=O)N1CCC(O)(Cn2cnc3c(cnn3-c3ccc(-c4ccccc4)cc3)c2=O)CC1` [Compound I-425]: the IC50 lay within 1000 to 10000 nM.
Same read-out and setting: in the case of `O=C(C1CC1)N1CCC(O)(Cn2cnc3c(cnn3-c3ccc(CN4CCCCC4)cc3)c2=O)CC1` [Compound I-431] it was 1000 to 10000 nM; in that of `COCCN(C)Cc1ccc(-n2ncc3c(=O)n(CC4(O)CCN(C(=O)C5CC5)CC4)cnc32)cc1` [Compound I-434], 1000 to 10000 nM; in that of `O=C(C1CC1)N1CCC(O)(Cn2cnc3c(cnn3-c3ccc(CN4CCc5ccccc5C4)cc3)c2=O)CC1` [Compound I-437], 1000 to 10000 nM.
On the same count and under the same terms, the same measure for `CCc1ccc(CN(C)Cc2ccc(-n3ncc4c(=O)n(CC5(O)CCN(C(=O)C6CC6)CC5)cnc43)cc2)cn1` [Compound I-440]: 1000 to 10000 nM.
On to `O=C(C1CC1)N1CCC(O)(Cn2cnc3c(cnn3-c3ccc(CN4CCC5(CCOCC5)C4)cc3)c2=O)CC1` [Compound I-443], for which the IC50 is 1000 to 10000 nM.
Same read-out and setting: the same measure for `N#CC1CCN(Cc2cccc(-n3ncc4c(=O)n(CC5(O)CCN(C(=O)C6CC6)CC5)cnc43)c2)CC1` [Compound I-446]: 1000 to 10000 nM; for `COCCN(C)Cc1cccc(-n2ncc3c(=O)n(CC4(O)CCN(C(=O)C5CC5)CC4)cnc32)c1` [Compound I-449]: 1000 to 10000 nM; for `CC(C)CN(C)Cc1cccc(-n2ncc3c(=O)n(CC4(O)CCN(C(=O)C5CC5)CC4)cnc32)c1` [Compound I-452]: 1000 to 10000 nM.
Same read-out and setting: in the case of `CC1(C(=O)N2CCC(O)(Cn3cnc4c(cnn4-c4ccc(F)cc4)c3=O)CC2)CCC1` [Compound I-464] it was 200 to 1000 nM; in that of `O=C(c1ccc(C2(O)CC2)cc1)N1CCC(O)(Cn2cnc3c(cnn3-c3ccccc3)c2=O)CC1` [Compound I-467], 1000 to 10000 nM; in that of `O=C(c1ccccc1)N1CC[C@](O)(Cn2cnc3c(cnn3-c3ccccc3)c2=O)[C@H](F)C1` [Compound I-469], 1000 to 10000 nM.
The same measure, in the same setting: the same measure for `CN(C)C(=O)N1CCC(O)(Cn2cnc3c(cnn3-c3ccc(F)c(-c4ccc(F)cc4)c3)c2=O)CC1` [Compound I-475]: 1000 to 10000 nM; for `CC1(C)CC(NC(=O)N2CCC(O)(Cn3cnc4c(cnn4-c4ccc(F)cc4)c3=O)CC2)C1` [Compound I-482]: over 10000 nM.
For `CN(C)C(=O)Nc1ccc(-n2ncc3c(=O)n(CC4(O)CCN(C(=O)C5CC5)CC4)cnc32)cc1` [Compound I-492], the IC50 fell in the range of 1000 to 10000 nM.
Same read-out and setting: the same measure for `O=C(C1CC1)N1CCC(O)(Cn2cnc3c(cnn3-c3cccc(N4CCNCC4)c3)c2=O)CC1` [Compound I-498]: under 200 nM; for `O=C(C1CC1)N1CCC(O)(Cn2cnc3c(cnn3-c3ccc(N4CCNCC4)cc3)c2=O)CC1` [Compound I-499]: 200 to 1000 nM.
`CN(C)C(=O)N1CCC(O)(Cn2cnc3c(cnn3-c3ccc(Oc4ccccc4)cc3)c2=O)CC1` [Compound I-500]: the IC50 is over 10000 nM.
As to `CNS(=O)(=O)Nc1ccc(-n2ncc3c(=O)n(CC4(O)CCN(C(=O)C5CC5)CC4)cnc32)cc1` [Compound I-504, 5-[(1-Cyclopropanecarbonyl-4-hydroxypiperidin-4-yl)methyl]-1-{4-[(methylsulfamoyl)amino]phenyl}-1H,4H,5H-pyrazolo[3,4-d]pyrimidin-4-one], the IC50 was 1000 to 10000 nM.
On to `CN(C)S(=O)(=O)Nc1ccc(-n2ncc3c(=O)n(CC4(O)CCN(C(=O)C5CC5)CC4)cnc32)cc1` [Compound I-505], for which the IC50 fell in the range of 1000 to 10000 nM.
On the same count and under the same terms, in the case of `CNC(=O)Nc1ccc(-n2ncc3c(=O)n(CC4(O)CCN(C(=O)C5CC5)CC4)cnc32)cc1` [Compound I-506] it was 1000 to 10000 nM.
The same measure, in the same setting: the same measure for `CNC(=O)Nc1cccc(-n2ncc3c(=O)n(CC4(O)CCN(C(=O)C5CC5)CC4)cnc32)c1` [Compound I-507]: 1000 to 10000 nM.
Take `CN(C)C(=O)N1CCC(O)(Cn2cnc3c(cnn3-c3ccc(N4CCC5(CCNCC5)CC4)cc3)c2=O)CC1` [Compound I-508]: the IC50 was in the range of 200 to 1000 nM.
The same measure, in the same setting: in the case of `O=C(c1cccc(CN2CCCC2)c1)N1CCC(O)(Cn2cnc3c(cnn3-c3ccc(F)cc3)c2=O)CC1` [Compound I-510] it was over 10000 nM.
The same measure, in the same setting: in the case of `CC(CC(=O)N1CCC(O)(Cn2cnc3c(cnn3-c3ccc(F)cc3)c2=O)CC1)n1cccn1` (centres unmarked) [Compound I-513] it was 200 to 1000 nM; in that of `C[C@@H](CC(=O)N1CCC(O)(Cn2cnc3c(cnn3-c3ccc(F)cc3)c2=O)CC1)n1cccn1` [Compound I-514], 200 to 1000 nM; in that of `C[C@H](CC(=O)N1CCC(O)(Cn2cnc3c(cnn3-c3ccc(F)cc3)c2=O)CC1)n1cccn1` [Compound I-515], 1000 to 10000 nM.
Still for that read-out and setting: in the case of `O=C(C[C@H](C(F)F)n1cccn1)N1CCC(O)(Cn2cnc3c(cnn3-c3ccc(F)cc3)c2=O)CC1` [Compound I-517] it was 1000 to 10000 nM; in that of `O=C(C[C@@H](C(F)F)n1cccn1)N1CCC(O)(Cn2cnc3c(cnn3-c3ccc(F)cc3)c2=O)CC1` [Compound I-518], under 200 nM; in that of `C[C@H](CC(=O)N1CCC(O)(Cn2cnc3c(cnn3-c3ccc(F)cc3)c2=O)CC1)n1cc2c(n1)CCC2` [Compound I-520], over 10000 nM.
On to `C[C@@H](CC(=O)N1CCC(O)(Cn2cnc3c(cnn3-c3ccc(F)cc3)c2=O)CC1)n1ncc2c1CCC2` [Compound I-521], for which the IC50 was over 10000 nM.
For the compound `C[C@H](CC(=O)N1CCC(O)(Cn2cnc3c(cnn3-c3ccc(F)cc3)c2=O)CC1)n1ncc2c1CCC2` [Compound I-522], the IC50 was over 10000 nM.
Still for that read-out and setting: the same measure for `CC(CC(=O)N1CCC(O)(Cn2cnc3c(cnn3-c3ccc(F)cc3)c2=O)CC1)N1CC2CCCC2C1` (centres unmarked) [Compound I-523]: over 10000 nM.
In the case of `C[C@@H](CC(=O)N1CCC(O)(Cn2cnc3c(cnn3-c3ccc(F)cc3)c2=O)CC1)N1CC2CCCC2C1` (some centres unmarked) [Compound I-524], the IC50 was 1000 to 10000 nM.
Same read-out and setting: the same measure for `C[C@H](CC(=O)N1CCC(O)(Cn2cnc3c(cnn3-c3ccc(F)cc3)c2=O)CC1)N1CC2CCCC2C1` (some centres unmarked) [Compound I-525]: over 10000 nM; for `CC(O)(c1ccc(C(=O)N2CCC(O)(Cn3cnc4c(cnn4-c4ccc(F)cc4)c3=O)CC2)cc1)C(F)(F)F` (centres unmarked) [Compound I-526]: 1000 to 10000 nM.
The same measure, in the same setting: the same measure for `C[C@@](O)(c1ccc(C(=O)N2CCC(O)(Cn3cnc4c(cnn4-c4ccc(F)cc4)c3=O)CC2)cc1)C(F)(F)F` [Compound I-527]: 1000 to 10000 nM; for `O=C(c1ccc(CN2CCCC2)cc1)N1CCC(O)(Cn2cnc3c(cnn3-c3ccc(F)cc3)c2=O)CC1` [Compound I-529]: 1000 to 10000 nM; for `Cc1ncc(C(=O)N2CCC(O)(Cn3cnc4c(cnn4-c4ccc(F)cc4)c3=O)CC2)o1` [Compound I-531]: 1000 to 10000 nM.
`CN1CCC(Oc2ccc(C(=O)N3CCC(O)(Cn4cnc5c(cnn5-c5ccc(F)cc5)c4=O)CC3)cc2)CC1` [Compound I-533]: the IC50 is 1000 to 10000 nM.
Still for that read-out and setting: the same measure for `O=C(c1ccc(-n2cccn2)cc1)N1CCC(O)(Cn2cnc3c(cnn3-c3ccc(F)cc3)c2=O)CC1` [Compound I-535]: 200 to 1000 nM; for `O=C(c1cnc(N2CCCCC2)o1)N1CCC(O)(Cn2cnc3c(cnn3-c3ccc(F)cc3)c2=O)CC1` [Compound I-536]: 1000 to 10000 nM; for `CN1CCN(c2ccc(C(=O)N3CCC(O)(Cn4cnc5c(cnn5-c5ccc(F)cc5)c4=O)CC3)cc2F)CC1` [Compound I-537]: 1000 to 10000 nM.
For `O=C(c1ccc(Oc2ccccn2)cc1)N1CCC(O)(Cn2cnc3c(cnn3-c3ccc(F)cc3)c2=O)CC1` [Compound I-538], the IC50 fell in the range of 1000 to 10000 nM.
